Patent US8980879B2 (AbbVie Inc., priority 2013, dated 2015)

Columns and labels:
BRD4 (BDII_E352-M457) = molecular target: T1, BRD4 (BDII_E352-M457) (Homo sapiens, UniProt O60885); assay: TR-FRET bromodomain binding assay, BRD4 second bromodomain
T1 construct: protocol; made in house
Protocol: (§1) A time-resolved fluorescence resonance energy transfer (TR-FRET) assay was used to determine the affinities of compounds of the Examples listed in Table 1 for each bromodomain of BRD4. His-tagged first (BD1: amino acids K57-E168) and second (BD2: amino acids E352-E168) bromodomains of BRD4 were expressed and purified. An Alexa647-labeled BET-inhibitor was used as the fluorescent probe in the assay.
(§2) Compound dilution series were prepared in DMSO via an approximately 3-fold serial dilution from one of the following:
(§3) Assay method D: 500 μM-8.5 nM
(§4) Assay method E: 0.47 mM to 7.8 nM
(§5) Assay method F: 250 μM-4.2 nM
(§6) Assay method G: 0.047 mM to 0.78 nM
(§7) or 5-fold serial dilution from one of the following:
(§8) Assay method A: 2.5 mM-800 nM
(§9) Assay method B: 2.5 mM-797 nM
(§10) For Assay methods A, C, D, and F: Compounds were then diluted 6:100 in assay buffer (20 mM Sodium Phosphate, pH 6.0, 50 mM NaCl, 1 mM Ethylenediaminetetraacetic acid, 0.01% Triton X-100, 1 mM DL-Dithiothreitol) to yield 3× working solutions. Six microliters (μL) of the working solution was then transferred to white, low-volume assay plates (Costar #3673). A 1.5× assay mixture containing His-tagged bromodomain, Europium-conjugated anti-His antibody (Invitrogen PV5596) and the Alexa-647-conjugated probe molecule was also prepared. Twelve μL of this solution were added to the assay plate to reach a final volume of 18 μL.
(§11) For Assay methods B, E, and G: Compound dilutions were added directly into white, low-volume assay plates (Perkin Elmer Proxiplate 384 Plus#6008280) using a Labcyte Echo in conjunction with Labcyte Access and Thermo Multidrop CombinL robotics. Compounds were then suspended in eight microliters (μL) of assay buffer (20 mM Sodium Phosphate, pH 6.0, 50 mM NaCl, 1 mM Ethylenediaminetetraacetic acid disodium salt dihydrate, 0.01% Triton X-100, 1 mM DL-Dithiothreitol) containing His-tagged bromodomain, Europium-conjugated anti-His antibody (Invitrogen PV5596) and Alexa-647-conjugated probe.
(§12) The final concentration of 1× assay mixture for assay methods A, B, C, D, E, F, and G contains 2% DMSO, 8 nM His-tagged bromodomain, 1 nM Europium-conjugated anti-His-tag antibody and 100 nM or 30 nM probe (for BDI or BDII, respectively) and compound concentration in the range of: 50 μM-16 nM for method A, 49.02 μM-15.63 nM for method B, 25 μM-423 pM for method C, 10 μM-169 pM for method D, 9.19 μM 150 pM for method E, 5 μM-85 pM for method F, and 0.92 μM-15 pM for method G.
(§13) After a one-hour equilibration at room temperature, TR-FRET ratios were determined using an Envision multilabel plate reader (Ex 340, Em 495/520).
(§14) TR-FRET data were normalized to the means of 24 no-compound controls (“high”) and 8 controls containing 1 μM un-labeled probe (“low”). Percent inhibition was plotted as a function of compound concentration and the data were fit with the 4 parameter logistic equation to obtain IC50s Inhibition constants (Ki) were calculated from the IC50s, probe Kd and probe concentration. Typical Z′ values were between 0.65 and 0.75. The minimum significant ratio was determined to evaluate assay reproducibility (Eastwood et al., (2006) J Biomol Screen, 11: 253-261). The MSR was determined to be 2.03 for BDI and 1.93 for BDII, and a moving MSR (last six run MSR overtime) for both BDI and BDII was typically <3.

BRD4 (BDI_K57-E168) = molecular target: T2, BRD4 (BDI_K57-E168) (Homo sapiens, UniProt O60885); assay: TR-FRET bromodomain binding assay, BRD4 first bromodomain; conditions: His-tagged BD1, 100 nM Alexa647 probe; assay protocol D or F as given per row in c1; Ki calculated from IC50
T2 construct: BD1: amino acids K57-E168; made in house
Protocol: as §1, §2, §3, §4, §5, §6, §7, §8, §9, §10, §11, §12, §13, §14

[1] = system: breast cancer cell line MX-1; assay: MX-1 cell line proliferation assay; format: cell-based; conditions: Homo sapiens, MX1; MX-1 cells, 3-day (72 h) proliferation, Cell Titer Glo; read-out: Cellular proliferation: EC50
Protocol: MX-1 Cell Line Proliferation Assay
The impact of compounds of the Examples on cancer cell proliferation was determined using the breast cancer cell line MX-1 (ATCC) in a 3-day proliferation assay and the data are reported in Table 1. MX-1 cells were maintained in RPMI 1640 medium (Sigma) supplemented with 10% FBS at 37 C.° and an atmosphere of 5% CO2. For compound testing, MX-1 cells were plated in 96-well black bottom plates at a density of 5000 cells/well in 90 μL of culture media and incubated at 37° overnight to allow cell adhesion and spreading. Compound dilution series were prepared in DMSO via a 3-fold serial dilution from 3 mM to 0.1 μM. The DMSO dilution series were then diluted 1:100 in phosphate buffered saline, and 10 μL of the resulted solution were added to the appropriate wells of the MX-1 cell plate. The final compound concentrations in the wells were 3, 1, 0.3, 0.1, 0.03, 0.01, 0.003, 0.001, 0.0003 and 0.0001 μM.
Luminescence readings from the Cell Titer Glo assay were normalized to the DMSO treated cells and analyzed using the GraphPad Prism software with sigmoidal curve fitting to obtain EC50s. The minimum significant ratio (MSR) was determined to evaluate assay reproducibility (Eastwood et al., (2006) J Biomol Screen, 11: 253-261). The overall MSR was determined to be 2.1 and a moving MSR (last six run MSR overtime) has been <2.

SMILES	Ki (BRD4 (BDII_E352-M457)) [nM]	Ki (BRD4 (BDI_K57-E168)) [nM]	EC50 [1] [nM]
Cc1cccc(CNc2ccc3c(c2)-c2cn(C)c4c(=O)[nH]cc(c24)CN3c2ccc(F)cc2)n1 [Example 40]	7.27	0.86	25.5
CC(=O)N1CCC(N2Cc3c[nH]c(=O)c4c3c(cn4C)-c3cc(NC(=O)Cc4cc(F)ccc4Cl)ccc32)CC1 [Example 76]	17.5	3.46	332
Cn1cc2c3c(c[nH]c(=O)c31)CN(CC1CC1)c1ccccc1-2 [Example 11]	18.9	7.14	56.8
Cn1cc2c3c(c[nH]c(=O)c31)CN(c1ccc(F)cc1)c1ccc(NC(=O)Cc3cc(F)ccc3C(F)(F)F)cc1-2 [Example 51]	84.8	5.12	–
Cn1cc2c3c(c[nH]c(=O)c31)CN(c1ccc(F)cc1)c1ncc(N)cc1-2 [Example 14]	3.69	3	2.78
CC(=O)N1CCC(N2Cc3c[nH]c(=O)c4c3c(cn4C)-c3cc(NC(=O)Cc4cnc(C)s4)ccc32)CC1 [Example 75]	54.6	2.54	> 1000
Cn1nccc1CNc1ccc2c(c1)-c1cn(C)c3c(=O)[nH]cc(c13)CN2c1ccc(F)cc1 [Example 38]	9.3	1.52	9
Cn1cc2c3c(c[nH]c(=O)c31)CN(c1ccc(F)cc1)c1ccc(C(=O)NCc3cc(F)ccc3F)cc1-2 [Example 64]	46.9	1.73	–
Cn1cc(CC(=O)Nc2cnc3c(c2)-c2cn(C)c4c(=O)[nH]cc(c24)CN3c2ccc(F)cc2)cn1 [Example 22]	3.03	1.29	16.5
Cn1cc2c3c(c[nH]c(=O)c31)CN(C1CCN(C(=O)OC(C)(C)C)CC1)c1ccc(CS(C)(=O)=O)cc1-2 [Example 80]	14.5	3.04	106
Cn1cc2c3c(c[nH]c(=O)c31)CN(c1ccc(F)cc1)c1ccc(Cl)cc1-2 [Example 13]	34.1	2.74	72
COC(=O)CCC1c2c[nH]c(=O)c3c2c(cn3C)-c2cc(CS(C)(=O)=O)ccc2N1c1ccc(F)cc1 (stereo not drawn) [Example 9]	18.2	6.29	805
Cn1cc2c3c(c[nH]c(=O)c31)CN(C(=O)c1ccccc1)c1ccc(CS(C)(=O)=O)cc1-2 [Example 7]	97.5	59.1	273
Cn1cc2c3c(c[nH]c(=O)c31)CN(c1ccc(F)cc1)c1ccc(C(=O)NCc3cnn(Cc4ccccc4)c3)cc1-2 [Example 62]	33.1	1.62	65.6
Cn1cc2c3c(c[nH]c(=O)c31)CN(c1ccc(F)cc1)c1ncc(NC(=O)Cn3ccc(-c4ccccc4F)n3)cc1-2 [Example 19]	11.6	1.32	68.7
Cn1cc2c3c(c[nH]c(=O)c31)CN(CC1CC1)c1ccc(S(C)(=O)=O)cc1-2 [Example 2]	430	21	144
Cc1cnc(C(=O)Nc2ccc3c(c2)-c2cn(C)c4c(=O)[nH]cc(c24)CN3c2ccc(F)cc2)cn1 [Example 35]	18.9	2.01	26.4
CC(NC(=O)c1ccc2c(c1)-c1cn(C)c3c(=O)[nH]cc(c13)CN2c1ccc(F)cc1)c1ccc(Cl)cc1Cl (stereo not drawn) [Example 61]	147	5.17	–

SMILES	Ki (BRD4 (BDII_E352-M457)) [nM]	Ki (BRD4 (BDI_K57-E168)) [nM]	EC50 [1] [nM]
CCOC(=O)C1c2c[nH]c(=O)c3c2c(cn3C)-c2cc(CS(C)(=O)=O)ccc2N1c1ccc(F)cc1 (stereo not drawn) [Example 15]	26.9	9.14	36.3
Cc1cc(CC(=O)Nc2ccc3c(c2)-c2cn(C)c4c(=O)[nH]cc(c24)CN3c2ccc(F)cc2)nn1C [Example 33]	6.39	1.49	17.4
Cn1cc2c3c(c[nH]c(=O)c31)CN(c1ccc(F)cc1)c1ccc(NC(=O)Cc3ccc(Cl)cc3F)cc1-2 [Example 29]	22.4	3.03	–
Cn1cc2c3c(c[nH]c(=O)c31)CN(c1ccc(F)cc1)c1ccc(NC(=O)Cc3cc(F)ccc3Br)cc1-2 [Example 49]	29.8	2.74	65.1
Cn1cc2c3c(c[nH]c(=O)c31)CNc1ccc(S(C)(=O)=O)cc1-2 [Example 1]	2820	1350	> 3000
Cn1cc2c3c(c[nH]c(=O)c31)CN(c1ccc(F)cc1)c1ccc(NC(=O)Cc3cc(Cl)ccc3Oc3ccccc3)cc1-2 [Example 55]	240	9.31	–
Cn1cc2c3c(c[nH]c(=O)c31)CN(c1ccc(F)cc1)c1ccc(NC(=O)Cn3ccc(-c4ccccc4F)n3)cc1-2 [Example 31]	79.5	11.5	–
Cn1cc2c3c(c[nH]c(=O)c31)CN(c1ccc(F)cc1)c1ncc(NC(=O)Cc3cc(F)ccc3Cl)cc1-2 [Example 17]	2.48	1.43	19.9
Cn1cc2c3c(c[nH]c(=O)c31)CN(c1ccc(F)cc1)c1ccc(NC(=O)Cc3ccccc3)cc1-2 [Example 54]	17.9	2.07	–
Cc1ccc(C)c(CC(=O)Nc2ccc3c(c2)-c2cn(C)c4c(=O)[nH]cc(c24)CN3c2ccc(F)cc2)c1 [Example 53]	50.1	2.61	–
COc1ccc(F)cc1CNC(=O)c1ccc2c(c1)-c1cn(C)c3c(=O)[nH]cc(c13)CN2c1ccc(F)cc1 [Example 56]	57.4	1.74	–
Cn1cc2c3c(c[nH]c(=O)c31)C(c1ccccc1)N(c1ccc(F)cc1)c1ccc(Cl)cc1-2 (stereo not drawn) [Example 24]	> 408	178	–
Cn1cc2c3c(c[nH]c(=O)c31)CN(c1ccc(F)cc1F)c1ncc(N)cc1-2 [Example 67]	7	21.2	–
COc1cccc(NC(=O)Nc2ccc3c(c2)-c2cn(C)c4c(=O)[nH]cc(c24)CN3c2ccc(F)cc2)c1 [Example 45]	130	7.12	–
CC(=O)N1CCC(N2Cc3c[nH]c(=O)c4c3c(cn4C)-c3cc(N)ccc32)CC1 [Example 73]	41.8	7.08	–
Cn1cc2c3c(c[nH]c(=O)c31)CN(c1ccc(F)cc1)c1ccc(NC(=O)Cc3ccc4c(c3)CCCO4)cc1-2 [Example 46]	19.7	3.29	–
CC(NC(=O)c1ccc2c(c1)-c1cn(C)c3c(=O)[nH]cc(c13)CN2c1ccc(F)cc1)c1ccc(F)cc1 (stereo not drawn) [Example 59]	71.5	2.89	–
